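48-hour exposure; five concentrations; linearly interpolated endpoints. GI50 = concentration required for 50% inhibition of growth.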 Activity calls are given as the source filed them. No stated cut-off is given here; in the data, active = GI50 up to about 1.1 µM and inactive = higher.
Assays:
Test in all cases: NCI tumour cell line growth inhibition, 48 h
[1] = system: A549
[2] = system: TK-10
[3] = system: LOX IMVI
[4] = system: SW-620
[5] = system: SF-539
[6] = system: EKVX
[7] = system: MOLT-4
[8] = system: HCC 2998
[9] = system: COLO 205
[10] = system: IGROV-1
[11] = system: MDA-MB-435
[12] = system: OVCAR-4
[13] = system: M14
[14] = system: PC-3
[15] = system: Malme-3M
[16] = system: KM12
[17] = system: UACC-257
[18] = system: SF-295
[19] = system: CAKI-1
[20] = system: MDA-N
[21] = system: HT-29
[22] = system: ACHN
[23] = system: SK-MEL-2
[24] = system: MCF7
[25] = system: HCT-15
[26] = system: OVCAR-3
[27] = system: SR
[28] = system: 786-0
[29] = system: SF-268
[30] = system: HL-60
[31] = system: SK-MEL-28
[32] = system: SN12C
[33] = system: UO-31
[34] = system: UACC-62
[35] = system: K562
[36] = system: BT-549
[37] = system: NCI-H460
[38] = system: NCI/ADR-RES
[39] = system: RPMI-8226
[40] = system: OVCAR-5
[41] = system: NCI-H23
[42] = system: SK-OV-3
[43] = system: DU-145
[44] = system: SNB-75
[45] = system: OVCAR-8
[46] = system: HCT-116
[47] = system: Hs-578T
[48] = system: HOP-92
[49] = system: U-251
[50] = system: NCI-H522
[51] = system: SNB-19
[52] = system: MDA-MB-231
[53] = system: NCI-H226
[54] = system: CCRF-CEM
[55] = system: HOP-62
[56] = system: SK-MEL-5
[57] = system: A498
[58] = system: RXF 393
[59] = system: T47D

O=C1/C(=C/c2ccc(Cl)cc2)CCCc2ccccc21
GI50 [1]: 21.3 µM (inactive) | GI50 [2]: 21.6 µM (inactive) | GI50 [3]: 17.3 µM (inactive) | GI50 [4]: 15.4 µM (inactive) | GI50 [5]: 17.9 µM (inactive) | GI50 [6]: 14.8 µM (inactive) | GI50 [7]: 14.8 µM (inactive) | GI50 [8]: 22.2 µM (inactive) | GI50 [9]: 20.6 µM (inactive) | GI50 [10]: 18.2 µM (inactive) | GI50 [11]: 17.1 µM (inactive) | GI50 [12]: 14.9 µM (inactive) | GI50 [13]: 15.6 µM (inactive) | GI50 [14]: 19.6 µM (inactive) | GI50 [15]: 13.6 µM (inactive) | GI50 [16]: 15.2 µM (inactive) | GI50 [17]: 28.8 µM (inactive) | GI50 [18]: 16.9 µM (inactive) | GI50 [19]: 39.4 µM (inactive) | GI50 [20]: 17.1 µM (inactive) | GI50 [21]: 4.67 µM (inactive) | GI50 [22]: 16.9 µM (inactive) | GI50 [23]: 14.7 µM (inactive) | GI50 [24]: 17.2 µM (inactive) | GI50 [25]: 14 µM | GI50 [26]: 18.9 µM (inactive) | GI50 [27]: 13.6 µM (inactive) | GI50 [28]: 17.3 µM (inactive) | GI50 [29]: 13.9 µM (inactive) | GI50 [30]: 13.7 µM (inactive) | GI50 [31]: 16.6 µM (inactive) | GI50 [32]: 18.7 µM (inactive) | GI50 [33]: 18.3 µM (inactive) | GI50 [34]: 14.5 µM (inactive) | GI50 [35]: 3.24 µM (inactive) | GI50 [36]: 20.3 µM (inactive) | GI50 [37]: 17.7 µM (inactive) | GI50 [38]: 15.1 µM (inactive) | GI50 [39]: 12.8 µM (inactive) | GI50 [40]: 16.9 µM (inactive) | GI50 [41]: 23.7 µM (inactive) | GI50 [42]: 43.1 µM (inactive) | GI50 [43]: 23.1 µM (inactive) | GI50 [44]: 30.3 µM (inactive) | GI50 [45]: 17.2 µM (inactive) | GI50 [46]: 13.6 µM (inactive) | GI50 [47]: 11.7 µM (inactive) | GI50 [48]: 21.5 µM (inactive) | GI50 [49]: 14.2 µM (inactive) | GI50 [50]: 11.7 µM (inactive) | GI50 [51]: 18.4 µM (inactive) | GI50 [52]: 19.6 µM (inactive) | GI50 [53]: 16.4 µM (inactive) | GI50 [54]: 12.5 µM (inactive) | GI50 [55]: 24.5 µM (inactive)

COc1c2c(cc3c1-c1c(cc4c(c1OC)OCO4)C1OC3C(C)C1C)OCO2.COc1cc2c(c(OC)c1OC)-c1c(cc3c(c1OC)OCO3)C1OC2C(C)C1C (stereo not drawn)
GI50 [1]: 97.5 µM (inactive) | GI50 [2]: > 100 µM (inactive) | GI50 [3]: 68.4 µM (inactive) | GI50 [4]: > 100 µM (inactive) | GI50 [5]: > 100 µM (inactive) | GI50 [6]: 87.3 µM (inactive) | GI50 [7]: 22.3 µM (inactive) | GI50 [8]: 56.4 µM (inactive) | GI50 [9]: > 100 µM (inactive) | GI50 [10]: 70.6 µM (inactive) | GI50 [11]: > 100 µM (inactive) | GI50 [12]: > 100 µM (inactive) | GI50 [13]: > 100 µM (inactive) | GI50 [14]: 37.8 µM (inactive) | GI50 [15]: > 100 µM (inactive) | GI50 [16]: 95.1 µM (inactive) | GI50 [56]: 78 µM (inactive) | GI50 [17]: 73.1 µM (inactive) | GI50 [18]: 87.1 µM (inactive) | GI50 [19]: > 100 µM (inactive) | GI50 [20]: > 100 µM (inactive) | GI50 [21]: 88.7 µM (inactive) | GI50 [22]: > 100 µM (inactive) | GI50 [23]: > 100 µM (inactive) | GI50 [24]: > 100 µM (inactive) | GI50 [25]: 67.9 µM | GI50 [26]: 84.5 µM (inactive) | GI50 [27]: > 100 µM (inactive) | GI50 [28]: > 100 µM (inactive) | GI50 [29]: > 100 µM (inactive) | GI50 [30]: 28.9 µM (inactive) | GI50 [31]: > 100 µM (inactive) | GI50 [32]: > 100 µM (inactive) | GI50 [33]: 94.8 µM (inactive) | GI50 [57]: > 100 µM (inactive) | GI50 [34]: 73.8 µM (inactive) | GI50 [35]: 72.8 µM (inactive) | GI50 [36]: 61.2 µM (inactive) | GI50 [37]: 55.3 µM (inactive) | GI50 [39]: 33 µM (inactive) | GI50 [40]: > 100 µM (inactive) | GI50 [41]: > 100 µM (inactive) | GI50 [42]: > 100 µM (inactive) | GI50 [43]: 91.8 µM (inactive) | GI50 [44]: 33 µM (inactive) | GI50 [45]: 57 µM (inactive) | GI50 [46]: 87.3 µM (inactive) | GI50 [47]: > 100 µM (inactive) | GI50 [48]: > 100 µM (inactive) | GI50 [49]: > 100 µM (inactive) | GI50 [58]: > 100 µM (inactive) | GI50 [50]: 61.4 µM (inactive) | GI50 [59]: 26.1 µM (inactive) | GI50 [51]: > 100 µM (inactive) | GI50 [52]: 8 µM (inactive) | GI50 [53]: > 100 µM (inactive) | GI50 [54]: 40.4 µM (inactive) | GI50 [55]: > 100 µM (inactive)
